Numbers after ± are expanded uncertainties.
Assay: wn = mass fraction of the nth substance listed
Conditions: Liquid, Pycnometric method, w2 = 0.5111

FC(F)C(F)(F)F [pentafluoroethane] + FCF
Conditions | mass density [kg/m3]
298.15 K, 28366 kPa | 1185.5 ± 1.9
299.15 K, 7469 kPa | 1097.4 ± 1.8
299.15 K, 7499 kPa | 1097.4 ± 1.8
299.15 K, 7541 kPa | 1097.4 ± 1.8
299.15 K, 29176 kPa | 1185.2 ± 1.9
299.15 K, 29179 kPa | 1185.2 ± 1.9
299.15 K, 29186 kPa | 1185.4 ± 1.9
300.15 K, 8097 kPa | 1097.2 ± 1.8
300.15 K, 8124 kPa | 1097.2 ± 1.8
300.15 K, 8166 kPa | 1097.2 ± 1.8
300.15 K, 29998 kPa | 1185.1 ± 1.9
300.15 K, 29999 kPa | 1185.1 ± 1.9
300.15 K, 30003 kPa | 1185.2 ± 1.9
301.15 K, 8725 kPa | 1097.1 ± 1.8
301.15 K, 8750 kPa | 1097.1 ± 1.8
301.15 K, 8791 kPa | 1097.1 ± 1.8
302.15 K, 9353 kPa | 1096.9 ± 1.8
302.15 K, 9377 kPa | 1096.9 ± 1.8
302.15 K, 9417 kPa | 1096.9 ± 1.8
303.15 K, 9980 kPa | 1096.8 ± 1.8
303.15 K, 10003 kPa | 1096.8 ± 1.8
303.15 K, 10042 kPa | 1096.8 ± 1.8
304.15 K, 10607 kPa | 1096.6 ± 1.8
304.15 K, 10629 kPa | 1096.6 ± 1.8
304.15 K, 10667 kPa | 1096.7 ± 1.8
305.15 K, 11234 kPa | 1096.5 ± 1.8
305.15 K, 11256 kPa | 1096.5 ± 1.8
305.15 K, 11292 kPa | 1096.5 ± 1.8
306.15 K, 11861 kPa | 1096.4 ± 1.8
306.15 K, 11881 kPa | 1096.4 ± 1.8
306.15 K, 11917 kPa | 1096.4 ± 1.8
307.15 K, 12487 kPa | 1096.2 ± 1.8
307.15 K, 12507 kPa | 1096.2 ± 1.8
307.15 K, 12541 kPa | 1096.2 ± 1.8
308.15 K, 13114 kPa | 1096.1 ± 1.8
308.15 K, 13133 kPa | 1096.1 ± 1.8
308.15 K, 13165 kPa | 1096.1 ± 1.8
309.15 K, 13740 kPa | 1095.9 ± 1.8
309.15 K, 13758 kPa | 1095.9 ± 1.8
309.15 K, 13790 kPa | 1095.9 ± 1.8
310.15 K, 14367 kPa | 1095.8 ± 1.8
310.15 K, 14384 kPa | 1095.8 ± 1.8
310.15 K, 14414 kPa | 1095.8 ± 1.8
311.15 K, 14992 kPa | 1095.6 ± 1.8
311.15 K, 15009 kPa | 1095.7 ± 1.8
311.15 K, 15038 kPa | 1095.7 ± 1.8
312.15 K, 15618 kPa | 1095.5 ± 1.8
312.15 K, 15634 kPa | 1095.5 ± 1.8
312.15 K, 15662 kPa | 1095.5 ± 1.8
313.15 K, 16243 kPa | 1095.4 ± 1.8
313.15 K, 16259 kPa | 1095.4 ± 1.8
313.15 K, 16286 kPa | 1095.4 ± 1.8
314.15 K, 16869 kPa | 1095.2 ± 1.8
314.15 K, 16883 kPa | 1095.2 ± 1.8
314.15 K, 16910 kPa | 1095.3 ± 1.8
315.15 K, 17493 kPa | 1095.1 ± 1.8
315.15 K, 17507 kPa | 1095.1 ± 1.8
315.15 K, 17534 kPa | 1095.1 ± 1.8
316.15 K, 18118 kPa | 1095 ± 1.8
316.15 K, 18131 kPa | 1095 ± 1.8
316.15 K, 18158 kPa | 1095 ± 1.8
317.15 K, 18743 kPa | 1094.9 ± 1.8
317.15 K, 18755 kPa | 1094.9 ± 1.8
317.15 K, 18781 kPa | 1094.9 ± 1.8
318.15 K, 19367 kPa | 1094.7 ± 1.8
318.15 K, 19379 kPa | 1094.7 ± 1.8
318.15 K, 19404 kPa | 1094.8 ± 1.8
319.15 K, 19990 kPa | 1094.6 ± 1.8
319.15 K, 20003 kPa | 1094.6 ± 1.8
319.15 K, 20027 kPa | 1094.6 ± 1.8
320.15 K, 20613 kPa | 1094.5 ± 1.8
320.15 K, 20627 kPa | 1094.5 ± 1.8
320.15 K, 20649 kPa | 1094.5 ± 1.8
321.15 K, 21236 kPa | 1094.4 ± 1.8
321.15 K, 21250 kPa | 1094.4 ± 1.8
321.15 K, 21272 kPa | 1094.4 ± 1.8
322.15 K, 21858 kPa | 1094.2 ± 1.8
322.15 K, 21873 kPa | 1094.3 ± 1.8
322.15 K, 21894 kPa | 1094.3 ± 1.8
323.15 K, 22480 kPa | 1094.1 ± 1.8
323.15 K, 22495 kPa | 1094.1 ± 1.8
323.15 K, 22516 kPa | 1094.2 ± 1.8
324.15 K, 23103 kPa | 1094 ± 1.8
324.15 K, 23117 kPa | 1094 ± 1.8
324.15 K, 23137 kPa | 1094 ± 1.8
325.15 K, 23725 kPa | 1093.9 ± 1.8
325.15 K, 23738 kPa | 1093.9 ± 1.8
325.15 K, 23758 kPa | 1093.9 ± 1.8
326.15 K, 24347 kPa | 1093.8 ± 1.8
326.15 K, 24361 kPa | 1093.8 ± 1.8
326.15 K, 24379 kPa | 1093.8 ± 1.8
327.15 K, 24970 kPa | 1093.7 ± 1.8
327.15 K, 24981 kPa | 1093.7 ± 1.8
327.15 K, 25000 kPa | 1093.7 ± 1.8
328.15 K, 25590 kPa | 1093.6 ± 1.8
328.15 K, 25601 kPa | 1093.6 ± 1.8
328.15 K, 25620 kPa | 1093.6 ± 1.8

Source: the NIST ThermoML archive (doi:10.1007/s10765-008-0535-5)
